Row | Compound | melting point
1 | Nc1ccc(-c2noc(-c3cnn4c(C(F)F)cc(-c5ccc(C(F)(F)F)c(OCC(F)(F)F)c5)nc34)n2)cn1 [Example 71, 5-(5-{7-Difluoromethyl-5-[3-(2,2,2-trifluoro-ethoxy)-4-trifluoromethyl-phenyl]-pyrazolo[1,5-a]pyrimidin-3-yl}-[1,2,4]oxadiazol-3-yl)-pyridin-2-ylamine] | 285 °C
2 | Nc1ccc(-c2noc(-c3cnn4c(C(F)F)cc(-c5ccc(C(F)(F)F)c(Cl)c5)nc34)n2)cn1 [Example 72, 5-{5-[5-(3-Chloro-4-trifluoromethyl-phenyl)-7-difluoromethyl-pyrazolo[1,5-a]pyrimidin-3-yl]-[1,2,4]oxadiazol-3-yl}-pyridin-2-ylamine] | 252 °C
3 | Nc1ccc(-c2noc(-c3cnn4c(C(F)(F)F)cc(-c5ccc(C(F)(F)F)c(Cl)c5)nc34)n2)cn1 [Example 73, 5-{5-[5-(3-Chloro-4-trifluoromethyl-phenyl)-7-trifluoromethyl-pyrazolo[1,5-a]pyrimidin-3-yl]-[1,2,4]oxadiazol-3-yl}-pyridin-2-ylamine] | 234 °C
4 | Nc1ccc(-c2noc(-c3cnn4c(C(F)F)cc(-c5ccc(C(F)(F)F)c(F)c5)nc34)n2)cn1 [Example 74, 5-{5-[7-Difluoromethyl-5-(3-fluoro-4-trifluoromethyl-phenyl)-pyrazolo[1,5-a]pyrimidin-3-yl]-[1,2,4]oxadiazol-3-yl}-pyridin-2-ylamine] | 242 °C
5 | Nc1ccc(-c2noc(-c3cnn4c(C(F)(F)F)cc(-c5ccc(C(F)(F)F)c(F)c5)nc34)n2)cn1 [Example 75, 5-{5-[5-(3-Fluoro-4-trifluoromethyl-phenyl)-7-trifluoromethyl-pyrazolo[1,5-a]pyrimidin-3-yl]-[1,2,4]oxadiazol-3-yl}-pyridin-2-ylamine] | 233 °C
6 | Nc1ccc(-c2noc(-c3cnn4c(C(F)(F)F)cc(-c5ccc(F)c(F)c5)nc34)n2)cn1 [Example 76, 5-{5-[5-(3,4-Difluoro-phenyl)-7-trifluoromethyl-pyrazolo[1,5-a]pyrimidin-3-yl]-[1,2,4]oxadiazol-3-yl}-pyridin-2-ylamine] | 262 °C
7 | Nc1ncc(-c2noc(-c3cnn4c(C(F)(F)F)cc(-c5ccc(F)c(F)c5)nc34)n2)cn1 [Example 78, 5-{5-[5-(3,4-Difluoro-phenyl)-7-trifluoromethyl-pyrazolo[1,5-a]pyrimidin-3-yl]-[1,2,4]oxadiazol-3-yl}-pyrimidin-2-ylamine] | 268 °C

Second part, the compound after the results:

Row | melting point | Compound
8 | 270 °C | Nc1ncc(-c2noc(-c3cnn4c(C(F)(F)F)cc(-c5ccc(C(F)(F)F)c(F)c5)nc34)n2)cn1 [Example 79, 5-{5-[5-(3-Fluoro-4-trifluoromethyl-phenyl)-7-trifluoromethyl-pyrazolo[1,5-a]pyrimidin-3-yl]-[1,2,4]oxadiazol-3-yl}-pyrimidin-2-ylamine]
9 | 279 °C | Nc1ncc(-c2noc(-c3cnn4c(C(F)(F)F)cc(-c5ccc(C(F)(F)F)c(Cl)c5)nc34)n2)cn1 [Example 80, 5-{5-[5-(3-Chloro-4-trifluoromethyl-phenyl)-7-trifluoromethyl-pyrazolo[1,5-a]pyrimidin-3-yl]-[1,2,4]oxadiazol-3-yl}-pyrimidin-2-ylamine]
10 | 300 °C | Nc1ncc(-c2noc(-c3cnn4c(C(F)(F)F)cc(-c5ccc(Cl)c(Cl)c5)nc34)n2)cn1 [Example 81, 5-{5-[5-(3,4-Dichloro-phenyl)-7-trifluoromethyl-pyrazolo[1,5-a]pyrimidin-3-yl]-[1,2,4]oxadiazol-3-yl}-pyrimidin-2-ylamine]
11 | 268 °C | Nc1ncc(-c2noc(-c3cnn4c(C(F)(F)F)cc(-c5ccc(Cl)cc5)nc34)n2)cn1 [Example 82, 5-{5-[5-(4-Chloro-phenyl)-7-trifluoromethyl-pyrazolo[1,5-a]pyrimidin-3-yl]-[1,2,4]oxadiazol-3-yl}-pyrimidin-2-ylamine]
12 | 272 °C | Cc1cc(-c2cc(C(F)(F)F)n3ncc(-c4nc(-c5cnc(N)nc5)no4)c3n2)ccc1C(F)(F)F [Example 83, 5-{5-[5-(3-Methyl-4-trifluoromethyl-phenyl)-7-trifluoromethyl-pyrazolo[1,5-a]pyrimidin-3-yl]-[1,2,4]oxadiazol-3-yl}-pyrimidin-2-ylamine]
13 | 272 °C | Cc1cc(-c2cc(C(F)(F)F)n3ncc(-c4nc(-c5cnc(N)nc5)no4)c3n2)ccc1Cl [Example 84, 5-{5-[5-(4-Chloro-3-methyl-phenyl)-7-trifluoromethyl-pyrazolo[1,5-a]pyrimidin-3-yl]-[1,2,4]oxadiazol-3-yl}-pyrimidin-2-ylamine]
14 | 252 °C | Nc1cc(-c2noc(-c3cnn4c(C(F)(F)F)cc(-c5ccc(Cl)cc5)nc34)n2)ccn1 [Example 85, 4-{5-[5-(4-Chloro-phenyl)-7-trifluoromethyl-pyrazolo[1,5-a]pyrimidin-3-yl]-[1,2,4]oxadiazol-3-yl}-pyridin-2-ylamine]
15 | 262 °C | Nc1cc(-c2noc(-c3cnn4c(C(F)(F)F)cc(-c5ccc(Cl)c(Cl)c5)nc34)n2)ccn1 [Example 86, 4-{5-[5-(3,4-Dichloro-phenyl)-7-trifluoromethyl-pyrazolo[1,5-a]pyrimidin-3-yl]-[1,2,4]oxadiazol-3-yl}-pyridin-2-ylamine]
16 | 245 °C | Cc1cc(-c2cc(C(F)(F)F)n3ncc(-c4nc(-c5ccnc(N)c5)no4)c3n2)ccc1C(F)(F)F [Example 87, 4-{5-[5-(3-Methyl-4-trifluoromethyl-phenyl)-7-trifluoromethyl-pyrazolo[1,5-a]pyrimidin-3-yl]-[1,2,4]oxadiazol-3-yl}-pyridine-2-ylamine]

— patent US8349844B2, “Substituted pyrazolo [1,5-A] pyrimidines as metabotropic glutamate antagonists” (Hoffmann-La Roche Inc., priority 2005, dated 2013)
